Experiment: Solubility of Silicon-Containing Compound E in aqueous CD solutions (clarity and stability, visual)
Type: physicochemical
Design: key to Solubility of Compound E: Stability: OK: When the aqueous solutions of the CD and the Silicon-Containing Compound E did not exhibit the conditions such as presence of precipitates and deposits, the solutions were considered as stable; NG: When the aqueous solutions of the CD and the Silicon-Containing Compound E exhibited the conditions such as presence of precipitates and deposits, the solutions were not considered as stable; key to Solubility of Compound E: Clarity: When the aqueous solutions of the CD and the Silicon-Containing Compound E were clear, the solutions were rated as “OK”; When the aqueous solutions of the CD and the Silicon-Containing Compound E were not clear, the solutions were rated as “NG”
Settings: purified water
Protocol: To determine “Solubility of Compound E” in the tables, the Silicon-Containing Compound E as another solute was added at respective ratios shown in the respective tables (see “Ratio of Compound E” in the tables) to the respective aqueous CD solutions after evaluation of the solubility of CD, and then the mixture was stirred on a shaker to prepare the respective aqueous solutions of the CD and the Silicon-Containing Compound E. Immediately after preparation of the aqueous solutions of the CD and the Silicon-Containing Compound E, the clarity of the aqueous solutions was visually evaluated. When the aqueous solutions of the CD and the Silicon-Containing Compound E were clear, the solutions were rated as “OK”. When the aqueous solutions of the CD and the Silicon-Containing Compound E were not clear, the solutions were rated as “NG”. “Stability” in “Solubility of Compound E” in the tables was determined by allowing the respective aqueous solutions of the CD and the Silicon-Containing Compound E after preparation to stand at ambient temperature for a predetermined period and then visually evaluating the conditions (such as presence of precipitates and deposits) of the solutions.

[1] = DEXYPEARL 1 w/w %, Compound E 0.1 w/w %
[2] = DEXYPEARL 2 w/w %, Compound E 0.1 w/w %
[3] = DEXYPEARL 3 w/w %, Compound E 0.1 w/w %
[4] = DEXYPEARL 4 w/w %, Compound E 0.1 w/w %
[5] = DEXYPEARL 5 w/w %, Compound E 0.1 w/w %
[6] = DEXYPEARL 6 w/w %, Compound E 0.1 w/w %
[7] = DEXYPEARL 7 w/w %, Compound E 0.1 w/w %
[8] = DEXYPEARL 8 w/w %, Compound E 0.1 w/w %
[9] = DEXYPEARL 9 w/w %, Compound E 0.1 w/w %
[10] = DEXYPEARL 10 w/w %, Compound E 0.1 w/w %
[11] = DEXYPEARL 20 w/w %, Compound E 0.1 w/w %
[12] = DEXYPEARL 30 w/w %, Compound E 0.1 w/w %
[13] = DEXYPEARL 40 w/w %, Compound E 0.1 w/w %
[14] = ISOELEAT 1 w/w %, Compound E 0.1 w/w %
[15] = ISOELEAT 2 w/w %, Compound E 0.1 w/w %
[16] = ISOELEAT 3 w/w %, Compound E 0.1 w/w %
[17] = ISOELEAT 4 w/w %, Compound E 0.1 w/w %
[18] = ISOELEAT 5 w/w %, Compound E 0.1 w/w %
[19] = ISOELEAT 6 w/w %, Compound E 0.1 w/w %
[20] = ISOELEAT 7 w/w %, Compound E 0.1 w/w %
[21] = ISOELEAT 8 w/w %, Compound E 0.1 w/w %
[22] = ISOELEAT 9 w/w %, Compound E 0.1 w/w %
[23] = ISOELEAT 10 w/w %, Compound E 0.1 w/w %
[24] = ISOELEAT 20 w/w %, Compound E 0.1 w/w %
[25] = ISOELEAT 30 w/w %, Compound E 0.1 w/w %
[26] = ISOELEAT 40 w/w %, Compound E 0.1 w/w %
[27] = ISOELEAT 50 w/w %, Compound E 0.1 w/w %
[28] = α-CD 1 w/w %, Compound E 0.1 w/w %
[29] = α-CD 1 w/w %, Compound E 0.2 w/w %
[30] = α-CD 1 w/w %, Compound E 0.3 w/w %
[31] = α-CD 1 w/w %, Compound E 0.4 w/w %
[32] = α-CD 1 w/w %, Compound E 0.5 w/w %
[33] = α-CD 1 w/w %, Compound E 0.6 w/w %
[34] = α-CD 1 w/w %, Compound E 0.7 w/w %
[35] = α-CD 1 w/w %, Compound E 0.8 w/w %
[36] = α-CD 1 w/w %, Compound E 0.9 w/w %
[37] = α-CD 1 w/w %, Compound E 1 w/w %
[38] = α-CD 7 w/w %, Compound E 0.1 w/w %
[39] = α-CD 7 w/w %, Compound E 0.2 w/w %
[40] = α-CD 7 w/w %, Compound E 0.3 w/w %
[41] = α-CD 7 w/w %, Compound E 0.4 w/w %
[42] = α-CD 7 w/w %, Compound E 0.5 w/w %
[43] = α-CD 7 w/w %, Compound E 0.6 w/w %
[44] = α-CD 7 w/w %, Compound E 0.7 w/w %
[45] = α-CD 7 w/w %, Compound E 0.8 w/w %
[46] = α-CD 7 w/w %, Compound E 0.9 w/w %
[47] = α-CD 7 w/w %, Compound E 1 w/w %
[48] = β-CD 1 w/w %, Compound E 0.1 w/w %

CCCCCCCCCCCCCCCCCC[N+](C)(C)CCC[Si](OCC)(OCC)OCC.[Cl-] [Compound E, Octadecyl dimethyl(3-triethoxysilylpropyl)ammonium chloride]
OK: Solubility of Compound E: Clarity [1] | Solubility of Compound E: Stability [1] | Solubility of Compound E: Clarity [2] | Solubility of Compound E: Stability [2] | Solubility of Compound E: Clarity [3] | Solubility of Compound E: Stability [3] | Solubility of Compound E: Clarity [4] | Solubility of Compound E: Stability [4] | Solubility of Compound E: Clarity [5] | Solubility of Compound E: Stability [5] | Solubility of Compound E: Clarity [6] | Solubility of Compound E: Stability [6] | Solubility of Compound E: Clarity [7] | Solubility of Compound E: Stability [7] | Solubility of Compound E: Clarity [8] | Solubility of Compound E: Stability [8] | Solubility of Compound E: Clarity [9] | Solubility of Compound E: Stability [9] | Solubility of Compound E: Clarity [10] | Solubility of Compound E: Stability [10] | Solubility of Compound E: Clarity [11] | Solubility of Compound E: Clarity [14] | Solubility of Compound E: Stability [14] | Solubility of Compound E: Clarity [15] | Solubility of Compound E: Stability [15] | Solubility of Compound E: Clarity [16] | Solubility of Compound E: Stability [16] | Solubility of Compound E: Clarity [17] | Solubility of Compound E: Stability [17] | Solubility of Compound E: Clarity [18] | Solubility of Compound E: Stability [18] | Solubility of Compound E: Clarity [19] | Solubility of Compound E: Stability [19] | Solubility of Compound E: Clarity [20] | Solubility of Compound E: Stability [20] | Solubility of Compound E: Clarity [21] | Solubility of Compound E: Stability [21] | Solubility of Compound E: Clarity [22] | Solubility of Compound E: Stability [22] | Solubility of Compound E: Stability [28] | Solubility of Compound E: Stability [29] | Solubility of Compound E: Stability [30] | Solubility of Compound E: Stability [31] | Solubility of Compound E: Stability [32] | Solubility of Compound E: Stability [33] | Solubility of Compound E: Stability [34] | Solubility of Compound E: Stability [38] | Solubility of Compound E: Stability [39] | Solubility of Compound E: Stability [40] | Solubility of Compound E: Stability [41] | Solubility of Compound E: Stability [42] | Solubility of Compound E: Stability [43] | Solubility of Compound E: Stability [44] | Solubility of Compound E: Stability [45] | Solubility of Compound E: Stability [46] | Solubility of Compound E: Stability [47] | Solubility of Compound E: Stability [48]
NG: Solubility of Compound E: Stability [11] | Solubility of Compound E: Clarity [12] | Solubility of Compound E: Stability [12] | Solubility of Compound E: Clarity [13] | Solubility of Compound E: Stability [13] | Solubility of Compound E: Clarity [23] | Solubility of Compound E: Stability [23] | Solubility of Compound E: Clarity [24] | Solubility of Compound E: Stability [24] | Solubility of Compound E: Clarity [25] | Solubility of Compound E: Stability [25] | Solubility of Compound E: Clarity [26] | Solubility of Compound E: Stability [26] | Solubility of Compound E: Clarity [27] | Solubility of Compound E: Stability [27] | Solubility of Compound E: Clarity [28] | Solubility of Compound E: Clarity [29] | Solubility of Compound E: Clarity [30] | Solubility of Compound E: Clarity [31] | Solubility of Compound E: Clarity [32] | Solubility of Compound E: Clarity [33] | Solubility of Compound E: Clarity [34] | Solubility of Compound E: Clarity [35] | Solubility of Compound E: Stability [35] | Solubility of Compound E: Clarity [36] | Solubility of Compound E: Stability [36] | Solubility of Compound E: Clarity [37] | Solubility of Compound E: Stability [37] | Solubility of Compound E: Clarity [38] | Solubility of Compound E: Clarity [39] | Solubility of Compound E: Clarity [40] | Solubility of Compound E: Clarity [41] | Solubility of Compound E: Clarity [42] | Solubility of Compound E: Clarity [43] | Solubility of Compound E: Clarity [44] | Solubility of Compound E: Clarity [45] | Solubility of Compound E: Clarity [46] | Solubility of Compound E: Clarity [47] | Solubility of Compound E: Clarity [48] | Solubility of Compound E: Clarity (β-CD 1 w/w %, Compound E 0.2 w/w %)

Source: patent US20150296790A1, “SILICON-CONTAINING COMPOUND AQUEOUS SOLUTION AND ANTIBACTERIAL/ANTIVIRAL AGENT INCLUDING SAID SOLUTION” (JEX CO., LTD., priority 2012, published 2015)
